Calls of active or inactive are those of the source.
Experiments:
[1] = system: Mus musculus; experiment: Neurotoxicity against Swiss albino Mus musculus (mouse) at 100 mg/kg, ip measured at 0.5 hr; format: toxicity, organism-based; parameters: dose 100 mg/kg, route intraperitoneal; settings: in vivo
[2] = system: Mus musculus; experiment: Anticonvulsant activity in Swiss albino Mus musculus (mouse) assessed as protection against maximal electric shock-induced tonic-clonic seizures at 100 mg/kg, ip measured at 0.5 hr; format: functional, organism-based; parameters: dose 100 mg/kg
[3] = system: Mus musculus; experiment: Neurotoxicity against Swiss albino Mus musculus (mouse) at 30 mg/kg, ip measured at 0.5 hr; format: toxicity, organism-based; parameters: dose 30 mg/kg, route intraperitoneal; settings: in vivo
[4] = system: Mus musculus; experiment: Anticonvulsant activity in Swiss albino Mus musculus (mouse) assessed as protection against ScMet-induced myoclonic-clonic seizures at 100 mg/kg, ip measured at 4 hr; format: functional, organism-based; parameters: dose 100 mg/kg
[5] = system: Mus musculus; experiment: Neurotoxicity against Swiss albino Mus musculus (mouse) at 300 mg/kg, ip measured at 4 hr; format: toxicity, organism-based; parameters: dose 300 mg/kg, route intraperitoneal; settings: in vivo
[6] = system: Mus musculus; experiment: Anticonvulsant activity in Swiss albino Mus musculus (mouse) assessed as protection against maximal electric shock-induced tonic-clonic seizures at 300 mg/kg, ip measured at 0.5 hr; format: functional, organism-based; parameters: dose 300 mg/kg
[7] = system: Mus musculus; experiment: Anticonvulsant activity in Swiss albino Mus musculus (mouse) assessed as protection against ScMet-induced myoclonic-clonic seizures at 100 mg/kg, ip measured at 0.5 hr; format: functional, organism-based; parameters: dose 100 mg/kg
[8] = system: Mus musculus; experiment: Anticonvulsant activity in Swiss albino Mus musculus (mouse) assessed as protection against maximal electric shock-induced tonic-clonic seizures at 30 mg/kg, ip measured at 4 hr; format: functional, organism-based; parameters: dose 30 mg/kg
[9] = system: Mus musculus; experiment: Anticonvulsant activity in Swiss albino Mus musculus (mouse) assessed as protection against ScMet-induced myoclonic-clonic seizures at 300 mg/kg, ip measured at 0.5 hr; format: functional, organism-based; parameters: dose 300 mg/kg
[10] = system: Mus musculus; experiment: Neurotoxicity against Swiss albino Mus musculus (mouse) at 300 mg/kg, ip measured at 0.5 hr; format: toxicity, organism-based; parameters: dose 300 mg/kg, route intraperitoneal; settings: in vivo
[11] = system: Mus musculus; experiment: Anticonvulsant activity in Swiss albino Mus musculus (mouse) assessed as protection against ScMet-induced myoclonic-clonic seizures at 300 mg/kg, ip measured at 4 hr; format: functional, organism-based; parameters: dose 300 mg/kg
[12] = system: Mus musculus; experiment: Anticonvulsant activity in Swiss albino Mus musculus (mouse) assessed as protection against ScMet-induced myoclonic-clonic seizures at 30 mg/kg, ip measured at 0.5 hr; format: functional, organism-based; parameters: dose 30 mg/kg
[13] = system: Mus musculus; experiment: Anticonvulsant activity in Swiss albino Mus musculus (mouse) assessed as protection against maximal electric shock-induced tonic-clonic seizures at 100 mg/kg, ip measured at 4 hr; format: functional, organism-based; parameters: dose 100 mg/kg
[14] = system: Mus musculus; experiment: Neurotoxicity against Swiss albino Mus musculus (mouse) at 30 mg/kg, ip measured at 4 hr; format: toxicity, organism-based; parameters: dose 30 mg/kg, route intraperitoneal; settings: in vivo
[15] = system: Mus musculus; experiment: Anticonvulsant activity in Swiss albino Mus musculus (mouse) assessed as protection against maximal electric shock-induced tonic-clonic seizures at 300 mg/kg, ip measured at 4 hr; format: functional, organism-based; parameters: dose 300 mg/kg
[16] = system: Mus musculus; experiment: Neurotoxicity against Swiss albino Mus musculus (mouse) at 100 mg/kg, ip measured at 4 hr; format: toxicity, organism-based; parameters: dose 100 mg/kg, route intraperitoneal; settings: in vivo
[17] = system: Mus musculus; experiment: Anticonvulsant activity in Swiss albino Mus musculus (mouse) assessed as protection against maximal electric shock-induced tonic-clonic seizures at 30 mg/kg, ip measured at 0.5 hr; format: functional, organism-based; parameters: dose 30 mg/kg
[18] = system: Mus musculus; experiment: Anticonvulsant activity in Swiss albino Mus musculus (mouse) assessed as protection against ScMet-induced myoclonic-clonic seizures at 30 mg/kg, ip measured at 4 hr; format: functional, organism-based; parameters: dose 30 mg/kg

Measured: Activity

O=C(CNC(=O)c1ccccc1Cl)Nc1ccccc1
Non-toxic: [1] | [3] | [5] | [10] | [14] | [16]
active: [15]
inactive: all other assays above

Cc1ccc(C(=O)NCC(=O)Nc2ccccc2)cc1
Non-toxic: [1] | [3] | [5] | [10] | [14] | [16]
active: [9]
inactive: all other assays above

O=C(CNC(=O)c1ccccc1)Nc1ccccc1
active: [6]
Non-toxic: [1] | [3] | [5] | [10] | [14] | [16]
inactive: all other assays above

O=C(CNC(=O)c1ccc([N+](=O)[O-])cc1)Nc1ccccc1
active: [9] | [11]
Non-toxic: [1] | [3] | [5] | [10] | [14] | [16]
inactive: all other assays above

CC(C)c1ccccc1NC(=O)CNC(=O)c1ccccc1
active: [6]
Non-toxic: [1] | [3] | [5] | [10] | [14] | [16]
inactive: all other assays above

CCc1ccccc1NC(=O)CNC(=O)c1ccccc1
Non-toxic: [1] | [3] | [5] | [10] | [14] | [16]
inactive: all other assays above

COc1ccc(NC(=O)CNC(=O)c2ccccc2)cc1
Non-toxic: [1] | [3] | [5] | [10] | [14] | [16]
active: [2] | [6] | [15]
inactive: all other assays above

Cc1cccc(C)c1NC(=O)CNC(=O)c1ccccc1
Non-toxic: [1] | [3] | [5] | [10] | [14] | [16]
active: [13] | [15]
inactive: all other assays above

O=C(CNC(=O)c1ccccc1)Nc1ccccc1Cl
Non-toxic: [1] | [3] | [5] | [10] | [14] | [16]
inactive: all other assays above

Cc1ccccc1NC(=O)CNC(=O)c1ccccc1
active: [6]
Non-toxic: [1] | [3] | [5] | [10] | [14] | [16]
inactive: all other assays above

COc1ccccc1NC(=O)CNC(=O)c1ccccc1
Non-toxic: [1] | [3] | [5] | [10] | [14] | [16]
inactive: all other assays above

Source: ChEMBL document CHEMBL3045887, “Synthesis and anticonvulsant activity of some N-(benzoyl)glycinanilide derivatives” (Med Chem Res, 2013)
